# Assay results taken from US6127392A, “Anthranilic acid analogs” (American Home Products Corporation, priority 1998, dated 2000).
# Legend:
# [1] = system: Isolated Rat Bladder Strips; assay: Inhibition of contractions in isolated rat bladder strips; type: cell-based
# Procedure: Sprague-Dawley rats (150-200 g) are rendered unconscious by CO2 asphyxiation and then euthanized by cervical dislocation. […] The bladder is opened and then cut into strips 1-2 mm in width and 7-10 mm in length. The strips are subsequently suspended in a 10 mL tissue bath under an initial resting tension of 1.5 g. The strips are held in place by two surgical clips one of which is attached to a fixed hook while the other is attached to an isometric force transducer. […] The carbachol is then washed out and the tissue allowed to relax to its resting level of activity. Following a further 30 min period of recovery an additional 15 mM KCl are introduced into the tissue bath. […] Following stabilization of this enhanced level of contractile activity, incremental increases in the concentration of test compound or vehicle are introduced into the tissue bath. Contractile activity is measured for each compound or vehicle concentration during the last minute of a 30 minute challenge.
# [2] = molecular target: T1, calcium-dependent large conductance potassium channels (maxi K^+) (Rattus norvegicus, UniProt Q62976); assay: Potassium channel activation, whole cell patch clamp in isolated rat detrusor cells; type: cell-based
# T1 construct: Rat detrusor cells were isolated in a manner previously described for guinea-pig detrusor; from tissue; host or cells: freshly isolated detrusor smooth muscle cells from urinary bladder dome of male Sprague-Dawley rats (endogenous channel)
# T1 sequence (Q62976 whole entry): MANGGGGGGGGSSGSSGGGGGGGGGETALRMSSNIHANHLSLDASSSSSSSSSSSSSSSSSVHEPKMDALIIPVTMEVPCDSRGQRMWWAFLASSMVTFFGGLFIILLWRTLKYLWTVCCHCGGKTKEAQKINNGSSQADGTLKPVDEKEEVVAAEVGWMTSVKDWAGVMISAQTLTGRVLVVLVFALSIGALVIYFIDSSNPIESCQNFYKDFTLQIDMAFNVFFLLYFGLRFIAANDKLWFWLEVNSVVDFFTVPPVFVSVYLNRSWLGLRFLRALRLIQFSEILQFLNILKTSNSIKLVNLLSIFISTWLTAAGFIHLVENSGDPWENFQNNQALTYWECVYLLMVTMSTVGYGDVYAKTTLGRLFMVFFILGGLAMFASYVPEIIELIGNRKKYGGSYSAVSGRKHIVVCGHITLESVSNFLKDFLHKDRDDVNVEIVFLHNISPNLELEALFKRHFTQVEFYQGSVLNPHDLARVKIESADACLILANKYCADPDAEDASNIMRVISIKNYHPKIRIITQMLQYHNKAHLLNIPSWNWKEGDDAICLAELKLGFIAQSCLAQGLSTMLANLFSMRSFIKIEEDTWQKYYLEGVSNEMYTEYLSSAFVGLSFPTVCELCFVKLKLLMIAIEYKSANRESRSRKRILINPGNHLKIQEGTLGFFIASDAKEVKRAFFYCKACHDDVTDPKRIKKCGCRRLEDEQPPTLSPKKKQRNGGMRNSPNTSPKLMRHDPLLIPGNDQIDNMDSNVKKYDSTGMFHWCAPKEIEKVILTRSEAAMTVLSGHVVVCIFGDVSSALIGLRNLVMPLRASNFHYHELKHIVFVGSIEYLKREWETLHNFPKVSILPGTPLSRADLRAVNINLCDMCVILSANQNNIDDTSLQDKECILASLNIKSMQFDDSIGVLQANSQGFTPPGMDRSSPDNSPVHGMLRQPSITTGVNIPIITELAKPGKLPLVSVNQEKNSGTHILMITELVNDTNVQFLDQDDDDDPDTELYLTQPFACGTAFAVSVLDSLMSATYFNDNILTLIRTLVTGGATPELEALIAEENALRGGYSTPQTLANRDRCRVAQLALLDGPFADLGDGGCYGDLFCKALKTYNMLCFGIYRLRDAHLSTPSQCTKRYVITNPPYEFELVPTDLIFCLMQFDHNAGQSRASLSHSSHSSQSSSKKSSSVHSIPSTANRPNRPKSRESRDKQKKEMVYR
# Procedure: Potassium channel activation by compounds of the present invention was established by examining the effect of the compound of Example 1 on calcium-dependent large conductance potassium channels (maxi K^+) as follows:
# Rat detrusor cells were isolated in a manner previously described for guinea-pig detrusor (Sheldon and Argentieri, 1995). Male Sprage-Dawley rats (200-400 grams) were euthanized by CO2 inhalation and exsanguination. Their urinary bladders were rapidly removed and placed in 37° C. physiological solution with the following composition (mM): Na glutamate (80.0), NaCl (54.7), KCl (5.0), NaHCO3 (25.0), MgCl2.2H2 O (2.5), D-glucose (11.8) and CaCl2 (0.2) gassed with […], 95%/5% for a final pH of 7.4. The dome of the bladder was isolated from the trigon region and the mucosa was removed. This tissue was then cut into 2-3 mm wide strips and placed in fresh buffer for 1 hour. Tissues were then transferred into 10.0 ml of an isolation buffer containing the above composition plus collagenase type VIII (1.0 mg/ml) and pronase (0.25 mg/ml). After 10 minutes the isolation buffer was replaced with fresh isolation buffer for an additional 10 min. […]
# Whole cell recordings were made using broken patch assess. […] After stability was achieved control currents were recorded. […] Currents were recorded for 5 to 10 minutes or until compound effects reached steady state. […]
# [3] = system: swelling induced chloride channel current; assay: Chloride channel blockade, swelling induced chloride current in bladder cells; type: cell-based, guinea pig
# Excerpt: Normal human bronchial epithelial cells (NHBE) were commercially available from Clonetics Corporation (San Diego, Calif.) and bladder cells were isolated from rat bladder.
# The normal external solution contained (in mM): N-methyl d-Glucamine chloride (NMDGCl). 140, MgCl2 2, CaCl2 2 and 4-(2-hydroxyethyl)-1-piperazine ethanesulfonic acid (HEPES) 10. The normal pipette solution contained (in mM): NMDGCI. 125, HEPES 10, MgCl2 2, ethylenebis(oxonitrilo)tetraacetate (EGTA) 2, and ATPMg 5, the pH adjusted to 7.3 with TRIS. To identify the leak conductance from depolarization, internal Cl ion concentration was reduced to 40 mM using glutamic acid (ECl approximately -31 mV according Nernst equation). The osmolarity for standard external solution was about 280 mOsm. […]
# The whole cell voltage clamp recording techniques were utilized to record membrane ionic currents. […] Membrane currents were recorded using an Axopatch 200A Patch Clamp Amplifier (Axon Instruments, Inc., Foster City, Calif.). […]
# A: current traces from -100 to 60 mV were recorded in the isotonic, low osmolarity (210 mOsm) and after application of 20 μM Example 1 in same cell. […] Panel B is four superimposed ramp test traces recorded in the presence of control, hypotonic, Example 1 and washout solutions. The C panel depicts the time course of the effect of Example 1 on ICl,swelling at 60 mV monitored from the same cell.
smiles,measurement,setting,value
"C/C(=C\c1ccc(C(F)(F)F)cc1)C(=O)Nc1ccccc1C(=O)O [1, Step 4]",IC50 (A)/IC50 (B),"[1]; aorta/bladder IC50 ratio, selectivity",39.6
"C/C(=C\c1ccc(C(F)(F)F)cc1)C(=O)Nc1ccccc1C(=O)[O-].[Li+] [Example 1, Step 4, (E)-2-[2-Methyl-3-(4-trifluoromethyl-phenyl)-acryloylamino]-benzoic acid lithium salt]",effect on outward current (maxi K^+ current),"[2]; 10 μM in superfusate, isolated rat bladder cells",increase in outward current that was reversible upon washout
same,effect on swelling induced chloride current,"[3]; 20 μM, guinea pig bladder cell, low osmolarity 210 mOsm",significantly reduced swelling induced chloride current
same,inhibition at 20 µM,"[3]; Cavia porcellus, Bladder, Swelling ICl, 60 mV, 210 mOsm",67%
"COc1ccc(/C=C/C(=O)Nc2ccccc2C(=O)O)cc1OC [Tranilast, reference compound]",smooth muscle relaxant potency and bladder selectivity,"[1]; bladder/aorta IC50 ratios, Table 1",not to be a potent or bladder selective smooth muscle relaxant
"COc1ccc(Cl)cc1C(=O)NCCc1ccc(S(=O)(=O)NC(=O)NC2CCCCC2)cc1 [glyburide, reference compound]",effect of glyburide on outward current,[2]; glyburide 5 μM added to the superfusate,no effect
